In patent publication US20230323475A1, “TEST METHOD, OF DIVIDING BLASTIC PLASMACYTOID DENDRITIC CELL NEOPLASM (BPDCN) INTO SUBTYPES” (JAPANESE FOUNDATION FOR CANCER RESEARCH, priority 2016, published 2023):

Assays:
Type in all cases: cell-based
[1] = test system: BPDCN cell line CAL-1 (MYC+BPDCN); test: Cell survival rate (Cell Titer-Glo cell growth assay), CAL-1; conditions: for survival rate of the CAL-1 cell line: CAL-1, 48 hours after addition of the BET bromodomain-selective inhibitor
Excerpt: (§1) The cell lines used were 4 lines: BPDCN cell lines CAL-1 (MYC^+BPDCN; Non Patent Literature 11; obtained from Nagasaki University) and PMDC05 (MYC-BPDCN; Non Patent Literature 12; obtained from Niigata University), a positive control plasma cell neoplasm KMS12PE (obtained from JCRB Cell Bank) having the increased expression of MYC, and a negative control leukemia cell line K562 (obtained from JCRB Cell Bank) in which no MYC gene rearrangement was seen.
(§2) The CAL-1, PMDC05, or KMN12PE cells at 4000 cells/well or K562 at 1000 cells/well were inoculated to 96-well cell culture plates. […] The cell survival rates were measured using a cell growth assay kit using CTG reagent (Cell Titer-Glo, manufactured by Promega Corp.).
(§3) Aurora kinase inhibitors, albeit not agents directly suppressing MYC expression, were analyzed for their effects in the present invention. […] Each inhibitor was added from 1 nm to 10000 nM to the medium of the cells of each line. 48 hours later, the survival rates of these cells were analyzed (FIG. 10).
(§4) Each inhibitor was added in the concentration of 1 nM to 10000 nM to the 4 cell lines described above. The survival rates of these cells were analyzed 48 hours later (FIG. 11).

[2] = test system: BPDCN cell line PMDC05 (MYC-BPDCN); test: Cell survival rate (Cell Titer-Glo cell growth assay), PMDC05; conditions: PMDC05, 48 hours, FIG. 6
Excerpt: as §1, §2, §3, §4

[3] = test system: negative control leukemia cell line K562; test: Cell survival rate (Cell Titer-Glo cell growth assay), K562; conditions: 48 hours, JQ1 at 1000 nM or more, FIG. 6
Excerpt: as §1, §2

[4] = test system: PARP cleavage in K562 cells; test: Western blot for PARP cleavage after JQ1, K562; conditions: K562, JQ1 for 24 hours, FIG. 9
Excerpt: (§5) The primary antibody used was anti-cMyc rabbit monoclonal antibody (manufactured by Abcam plc) and an anti-GAPDH mouse monoclonal antibody (manufactured by Merck Millipore) as control. The secondary antibody used was a HRP-labeled anti-rabbit IgG antibody (donkey, manufactured by Amersham Biosciences Corp.). SuperSignal West Femto Maximum Sensitivity Substrate (manufactured by Pierce/Thermo Fisher Scientific Inc.) was used for detection.
(§6) As mentioned above, it was shown that the cell growth was suppressed by the addition of the BET bromodomain-selective inhibitors to a medium. Next, analysis was conducted on a mechanism underlying the suppression of the cell growth. JQ1 was added to CAL-1, PMDC05, KMS12PE, and K562 cells. Twenty-four hours later, the cells were collected and analyzed by Western blot for MYC expression and PARP cleavage serving as an index for cell death by apoptosis. An anti-PARP antibody was obtained from Cell Signaling Technology, Inc.

[5] = test system: MYC expression in CAL-1 cells; test: MYC expression over time by immunostaining, CAL-1; conditions: FIG. 7
Method: The ratios of MYC-positive cells at the time of JQ1 addition (0 hours), 6 hours later, 24 hours later, and 48 hours later were approximately 95%, 60%, 15%, and 0%, respectively. Good correlation was observed between decrease in cell survival rate and decrease in MYC expression level.

[6] = test system: MYC expression and PARP cleavage in CAL-1 cells; test: Western blot for MYC expression and PARP cleavage after JQ1, CAL-1; conditions: CAL-1, 400 nM JQ1 for 24 hours, compared with untreated cells, FIG. 9
Excerpt: as §5, §6

[7] = test system: MYC expression and PARP cleavage in KMS12PE cells; test: Western blot for MYC expression and PARP cleavage after JQ1, KMS12PE; conditions: 400 nM JQ1 for 24 hours, compared with untreated cells, FIG. 9
Excerpt: as §5, §6

[8] = test system: PARP cleavage in PMDC05 cells; test: Western blot for PARP cleavage after JQ1, PMDC05; conditions: PMDC05, JQ1 for 24 hours, FIG. 9
Excerpt: as §5, §6

[9] = inhibitor added at a high concentration

## Cc1sc2c(c1C)C(c1ccc(Cl)cc1)=N[C@@H](CC(N)=O)c1nnc(C)n1-2 [CPI203]
[1]; FIG. 6
  survival rate of the CAL-1 cell line: sharply decreased
[2]; [9]
  survival rate of PMDC05: high survival rate

## COc1cc2c(cc1-c1c(C)noc1C)ncc1[nH]c(=O)n([C@H](C)c3ccccn3)c12 [I-BET151]
[1]; FIG. 6
  survival rate of the CAL-1 cell line: sharply decreased
[2]; [9]
  survival rate of PMDC05: high survival rate

## Cc1sc2c(c1C)C(c1ccc(Cl)cc1)=N[C@@H](CC(=O)OC(C)(C)C)c1nnc(C)n1-2 [JQ1]
[3]
  survival rate of K562: high survival rate
[4]
  increased PARP cleavage: not observed
[1]; CAL-1, 48 hours after addition, 6.25 nM to 6400 nM, FIG. 6
  concentration above which the survival rate of CAL-1 was rapidly decreased: exceeded 150 nM
[5]; CAL-1, 400 nM JQ1, 6 hours later
  ratio of MYC-positive cells: ~60%
[5]; CAL-1, 400 nM JQ1, 24 hours later
  ratio of MYC-positive cells: ~15%
[5]; CAL-1, 400 nM JQ1, 48 hours later
  ratio of MYC-positive cells: ~0%
[5]; CAL-1, 400 nM JQ1, at the time of JQ1 addition (0 hours)
  ratio of MYC-positive cells: approximately 95%
[2]; JQ1 added at a high concentration of 1000 nM or more
  survival rate of PMDC05: high survival rate
[6]
  MYC expression (Western blot): markedly decreased
  expression of cleaved-PARP (index for cell death by apoptosis): increased
[7]
  MYC expression (Western blot): markedly decreased
  expression of cleaved-PARP (index for cell death by apoptosis): increased
[8]
  increased PARP cleavage: not observed

## Cc1sc2c(c1C)C(c1ccc(Cl)cc1)=N[C@@H](CC(=O)Nc1ccc(O)cc1)c1nnc(C)n1-2 [OTX015]
[1]; FIG. 6
  survival rate of the CAL-1 cell line: sharply decreased
[2]; [9]
  survival rate of PMDC05: high survival rate

## COc1ccccc1S(=O)(=O)Nc1ccc2c(c1)CN(C)C(=O)N2 [PFI-1]
[1]; FIG. 6
  survival rate of the CAL-1 cell line: sharply decreased
[2]; [9]
  survival rate of PMDC05: high survival rate

## COc1cc(Nc2ncc3c(n2)-c2ccc(Cl)cc2C(c2c(F)cccc2OC)=NC3)ccc1C(=O)O [alisertib]
[1]; 1 nM to 10000 nM, 48 hours, FIG. 10
  growth suppressive or inhibitory effect on CAL-1 compared with PMDC05 cells: higher growth suppressive or inhibitory effect
[1]; summary statement in the description
  growth suppression of BPDCN cell lines that exhibited MYC expression: effective
